Patent US7468375B2 (Pfizer Inc., priority 2004, dated 2008)
Like-named read-outs stand apart in the source and are kept apart here.

Experiments:
[1] = molecular target: T1, Full-length wild type HIV-1 integrase (SF1) (Human immunodeficiency virus type 1 group M subtype B, UniProt P04585); experiment: Integrase strand-transfer scintillation proximity assay; type: biochemical; conditions: strand transfer, 50 min at 37° C., 246 nM integrase, 50 nM host DNA; read-out: IC50
T1 construct: made in house; host or cells: E. coli BL21 (DE3)
How it was run: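 Recombinant full-length wild-type HIV-1 integrase (aa 1-288), E. coli-expressed, tested on biotinylated pre-processed U5 LTR viral ds-DNA with CA overhang bound to streptavidin SPA beads. [3H]-thymidine-labelled host ds-DNA serves as target; strand transfer read by scintillation proximity. A 3′ di-deoxy viral DNA control checks non-specific binding.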

[2] = tested on: RF strain of HIV-1 in CEM-SS cells; experiment: HIV-1 cell protection assay (XTT dye reduction); type: cell-based; conditions: HIV-1 RF, CEM-SS cells, XTT dye reduction, six days, read-out: EC50
How it was run: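 CEM-SS cells infected with HIV-1 RF (moi 0.025–0.819) or mock-infected, 2×10^4 cells/well with half-log compound dilutions for six days. Viability by XTT/PMS reduction (4 h), absorbance 450 nm, as % of uninfected untreated cells. Therapeutic index = CC50/EC50.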

[3] = Human immunodeficiency virus 1, CEM-SS, 144 h

Row | Compound | IC50 [1] | EC50 [2] | EC50 [2, 3]
1 | CCN1CCCC1CNCc1cn(Cc2ccc(F)cc2F)c2cnc(C(=O)NO)cc12 (stereo not shown) [Example 62, 1-(2,4-Difluorobenzyl)-3-({[(1-ethylpyrrolidin-2-yl)methyl]amino}methyl)-N-hydroxy-1H-pyrrolo[2,3-c]pyridine-5-carboxamide] | 671 nM | 17 nM | –
2 | CN(CCc1ccccn1)Cc1cn(Cc2ccc(F)cc2F)c2cnc(C(=O)NO)cc12 [Example 63, 1-(2,4-Difluorobenzyl)-N-hydroxy-3-{[methyl(2-pyridin-2-ylethyl)amino]methyl}-1H-pyrrolo[2,3-c]pyridine-5-carboxamide] | 424 nM | – | 16 nM
3 | O=C(NO)c1cc2c(CN[C@H](CO)Cc3ccccc3)cn(Cc3ccc(F)cc3F)c2cn1 [Example 64, 3-({[(1S)-1-Benzyl-2-hydroxyethyl]amino}methyl)-1-(2,4-difluorobenzyl)-N-hydroxy-1H-pyrrolo[2,3-c]pyridine-5-carboxamide] | 328 nM | – | 17 nM
4 | CC(O)CNCc1cn(Cc2ccc(F)cc2F)c2cnc(C(=O)NO)cc12 (stereo not shown) [Example 65, 1-(2,4-Difluorobenzyl)-N-hydroxy-3-{[(2-hydroxypropyl)amino]methyl}-1H-pyrrolo[2,3-c]pyridine-5-carboxamide] | 625 nM | – | 14 nM
5 | Cc1cnc(CNCc2cn(Cc3ccc(F)cc3F)c3cnc(C(=O)NO)cc23)cn1 [Example 66, 1-(2,4-Difluorobenzyl)-N-hydroxy-3-({[(5-methylpyrazin-2-yl)methyl]amino}methyl)-1H-pyrrolo[2,3-c]pyridine-5-carboxamide] | 357 nM | – | 11 nM
6 | O=C(NO)c1cc2c(CNCCc3c[nH]c4ccccc34)cn(Cc3ccc(F)cc3F)c2cn1 [Example 67, 1-(2,4-Difluorobenzyl)-N-hydroxy-3-({[2-(1H-indol-3-yl)ethyl]amino}methyl)-1H-pyrrolo[2,3-c]pyridine-5-carboxamide] | 283 nM | – | 15 nM
7 | O=C(NO)c1cc2c(CNCCCN3CCCC3=O)cn(Cc3ccc(F)cc3F)c2cn1 [Example 68, 1-(2,4-Difluorobenzyl)-N-hydroxy-3-({[3-(2-oxopyrrolidin-1-yl)propyl]amino}methyl)-1H-pyrrolo[2,3-c]pyridine-5-carboxamide] | 549 nM | – | 100 nM
8 | CCN(CCO)Cc1cn(Cc2ccc(F)cc2F)c2cnc(C(=O)NO)cc12 [Example 69, 1-(2,4-Difluorobenzyl)-3-{[ethyl(2-hydroxyethyl)amino]methyl}-N-hydroxy-1H-pyrrolo[2,3-c]pyridine-5-carboxamide] | 755 nM | – | 28 nM
9 | O=C(NO)c1cc2c(CNCc3ccc(F)cc3)cn(Cc3ccc(F)cc3F)c2cn1 [Example 70, 1-(2,4-Difluorobenzyl)-3-{[(4-fluorobenzyl)amino]methyl}-N-hydroxy-1H-pyrrolo[2,3-c]pyridine-5-carboxamide] | 332 nM | – | 22 nM
10 | CC(NCc1cn(Cc2ccc(F)cc2F)c2cnc(C(=O)NO)cc12)c1ccccc1 (stereo not shown) [Example 71, 1-(2,4-Difluorobenzyl)-N-hydroxy-3-{[(1-phenylethyl)amino]methyl}-1H-pyrrolo[2,3-c]pyridine-5-carboxamide] | 409 nM | – | 44 nM
11 | CN(C)CCNCc1cn(Cc2ccc(F)cc2F)c2cnc(C(=O)NO)cc12 [Example 72, 1-(2,4-Difluorobenzyl)-3-({[2-(dimethylamino)ethyl]amino}methyl)-N-hydroxy-1H-pyrrolo[2,3-c]pyridine-5-carboxamide] | 658 nM | – | 29 nM
12 | CCCN(Cc1cn(Cc2ccc(F)cc2F)c2cnc(C(=O)NO)cc12)CC1CC1 [Example 73, 3-{[(Cyclopropylmethyl)(propyl)amino]methyl}-1-(2,4-difluorobenzyl)-N-hydroxy-1H-pyrrolo[2,3-c]pyridine-5-carboxamide] | 658 nM | – | 35 nM
13 | O=C(NO)c1cc2c(CN[C@@H]3C[C@H]4CC[C@@H]3C4)cn(Cc3ccc(F)cc3F)c2cn1 [Example 74, 3-{[(1R,2R,4S)-Bicyclo[2.2.1]hept-2-ylamino]methyl}-1-(2,4-difluorobenzyl)-N-hydroxy-1H-pyrrolo[2,3-c]pyridine-5-carboxamide] | 357 nM | – | 32 nM
14 | C[C@@H](NCc1cn(Cc2ccc(F)cc2F)c2cnc(C(=O)NO)cc12)C1CCCCC1 [Example 76, 3-({[(1R)-1-Cyclohexylethyl]amino}methyl)-1-(2,4-difluorobenzyl)-N-hydroxy-1H-pyrrolo[2,3-c]pyridine-5-carboxamide] | 402 nM | – | 91 nM
15 | O=C(NO)c1cc2c(CN[C@H](CO)Cc3c[nH]c4ccccc34)cn(Cc3ccc(F)cc3F)c2cn1 [Example 77, 1-(2,4-Difluorobenzyl)-N-hydroxy-3-({[(1S)-2-hydroxy-1-(1H-indol-3-ylmethyl)ethyl]amino}methyl)-1H-pyrrolo[2,3-c]pyridine-5-carboxamide] | 483 nM | – | 360 nM
16 | CC(C)C(CO)NCc1cn(Cc2ccc(F)cc2F)c2cnc(C(=O)NO)cc12 (stereo not shown) [Example 78, 1-(2,4-Difluorobenzyl)-N-hydroxy-3-({[1-(hydroxymethyl)-2-methylpropyl]amino}methyl)-1H-pyrrolo[2,3-c]pyridine-5-carboxamide] | 571 nM | – | 83 nM
17 | Cc1cccc(CNCc2cn(Cc3ccc(F)cc3F)c3cnc(C(=O)NO)cc23)c1 [Example 79, 1-(2,4-Difluorobenzyl)-N-hydroxy-3-{[(3-methylbenzyl)amino]methyl}-1H-pyrrolo[2,3-c]pyridine-5-carboxamide] | 243 nM | – | 20 nM
18 | O=C(NO)c1cc2c(CNCCO)cn(Cc3ccc(F)cc3F)c2cn1 [Example 80, 1-(2,4-Difluorobenzyl)-N-hydroxy-3-{[(2-hydroxyethyl)amino]methyl}-1H-pyrrolo[2,3-c]pyridine-5-carboxamide] | 530 nM | 10 nM | –
19 | CC1CCCN1Cc1cn(Cc2ccc(F)cc2F)c2cnc(C(=O)NO)cc12 (stereo not shown) [Example 81, 1-(2,4-Difluorobenzyl)-N-hydroxy-3-[(2-methylpyrrolidin-1-yl)methyl]-1H-pyrrolo[2,3-c]pyridine-5-carboxamide] | 499 nM | – | 40 nM
20 | CCC(CC)NCc1cn(Cc2ccc(F)cc2F)c2cnc(C(=O)NO)cc12 [Example 82, 1-(2,4-Difluorobenzyl)-3-{[(1-ethylpropyl)amino]methyl}-N-hydroxy-1H-pyrrolo[2,3-c]pyridine-5-carboxamide] | 634 nM | – | 23 nM
21 | CC(C)OCCCNCc1cn(Cc2ccc(F)cc2F)c2cnc(C(=O)NO)cc12 [Example 83, 1-(2,4-Difluorobenzyl)-N-hydroxy-3-H{[(3-isopropoxypropyl)amino]methyl}-1H-pyrrolo[2,3-c]pyridine-5-carboxamide] | 952 nM | – | 60 nM
22 | O=C(NO)c1cc2c(CNCC(O)c3ccccc3)cn(Cc3ccc(F)cc3F)c2cn1 (stereo not shown) [Example 84, 1-(2,4-Difluorobenzyl)-N-hydroxy-3-{[(2-hydroxy-2-phenylethyl)amino]methyl}-1H-pyrrolo[2,3-c]pyridine-5-carboxamide] | 316 nM | – | 51 nM
23 | O=C(NO)c1cc2c(CNCCc3ccc(F)cc3)cn(Cc3ccc(F)cc3F)c2cn1 [Example 85, 1-(2,4-Difluorobenzyl)-3-(J[2-(4-fluorophenyl)ethyl]aminomethyl)-N-hydroxy-1H-pyrrolo[2,3-c]pyridine-5-carboxamide] | 224 nM | – | 33 nM
